SMILES strings stand for the structures.

For one experiment, the target named is T1, Therminator II (Thermococcus sp. 9oN-7, UniProt Q56366, D141A/E143A/Y409V/A485L, form not given).
T1 construct: gene pol; commercial engineered variant of 9°N DNA polymerase (New England Biolabs)
Briefly: primer extension, denaturing PAGE and mass spectrometry. The conditions noted are these: templates T1 and T2, primer P3; 72°C. The experiment is classed as biochemical.

The next experiment deals with T2, Klenow large fragment (Escherichia coli, UniProt P00582).
T2 construct: gene polA; large (Klenow) fragment of DNA polymerase I, without the N-terminal 5'-3' exonuclease domain; commercial (New England Biolabs)
T2 sequence (P00582 324-928 limits assumed): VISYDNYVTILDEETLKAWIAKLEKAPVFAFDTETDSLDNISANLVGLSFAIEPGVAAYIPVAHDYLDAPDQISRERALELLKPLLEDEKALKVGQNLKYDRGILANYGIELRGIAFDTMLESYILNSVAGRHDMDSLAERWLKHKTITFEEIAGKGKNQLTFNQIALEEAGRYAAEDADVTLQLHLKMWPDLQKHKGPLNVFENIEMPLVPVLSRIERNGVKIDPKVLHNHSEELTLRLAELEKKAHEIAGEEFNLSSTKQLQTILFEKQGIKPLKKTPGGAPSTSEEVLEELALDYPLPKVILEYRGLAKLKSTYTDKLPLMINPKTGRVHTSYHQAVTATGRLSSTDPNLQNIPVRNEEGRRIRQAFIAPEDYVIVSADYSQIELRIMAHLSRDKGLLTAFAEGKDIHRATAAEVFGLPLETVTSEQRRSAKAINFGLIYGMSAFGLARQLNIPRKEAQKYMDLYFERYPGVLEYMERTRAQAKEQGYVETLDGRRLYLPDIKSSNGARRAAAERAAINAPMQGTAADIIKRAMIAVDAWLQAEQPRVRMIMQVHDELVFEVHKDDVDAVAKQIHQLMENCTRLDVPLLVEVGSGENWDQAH
The experiment is described as above. The format is biochemical. The conditions noted are these: templates T1 and T2, primer P3; 37°C.

T1 sequence (Q56366 whole entry D141A/E143A/Y409V/A485L, form open): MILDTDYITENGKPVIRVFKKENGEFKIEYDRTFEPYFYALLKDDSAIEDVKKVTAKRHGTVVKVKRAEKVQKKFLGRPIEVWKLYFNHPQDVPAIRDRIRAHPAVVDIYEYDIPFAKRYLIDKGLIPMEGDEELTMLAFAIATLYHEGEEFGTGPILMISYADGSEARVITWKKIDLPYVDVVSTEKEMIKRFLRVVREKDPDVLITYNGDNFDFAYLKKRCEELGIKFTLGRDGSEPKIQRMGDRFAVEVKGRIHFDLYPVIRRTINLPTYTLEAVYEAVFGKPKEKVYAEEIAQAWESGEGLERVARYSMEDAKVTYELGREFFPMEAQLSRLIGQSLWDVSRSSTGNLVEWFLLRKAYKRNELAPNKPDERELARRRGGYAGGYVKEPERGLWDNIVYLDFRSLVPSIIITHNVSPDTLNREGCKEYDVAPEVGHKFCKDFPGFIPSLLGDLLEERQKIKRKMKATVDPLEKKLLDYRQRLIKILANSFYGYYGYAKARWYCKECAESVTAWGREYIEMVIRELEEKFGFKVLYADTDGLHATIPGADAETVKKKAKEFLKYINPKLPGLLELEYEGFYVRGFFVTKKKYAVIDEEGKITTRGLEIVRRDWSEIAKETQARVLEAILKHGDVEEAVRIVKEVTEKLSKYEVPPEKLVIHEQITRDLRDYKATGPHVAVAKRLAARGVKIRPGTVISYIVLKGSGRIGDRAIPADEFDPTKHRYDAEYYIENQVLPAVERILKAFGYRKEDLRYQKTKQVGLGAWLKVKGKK

For `[N-]=[N+]=NCCCCCC(=O)NCC#Cc1cn([C@H]2C[C@H](O)[C@@H](COP(=O)(O)OP(=O)(O)OP(=O)(O)O)O2)c(=O)[nH]c1=O` [AHP dUTP], the “primer extension, denaturing PAGE and mass spectrometry” value is “all four polymerases successfully incorporate AHP dUTP in the presence of templates T1 and T2” at Therminator II; “all four polymerases successfully incorporate AHP dUTP in the presence of templates T1 and T2” on Klenow large fragment.
